# Patent publication US20250243486A1, “COMPOSITIONS AND METHODS FOR INHIBITING STAG1 EXPRESSION AND USES THEREOF” (PRESIDENT AND FELLOWS OF HARVARD COLLEGE, priority 2022, published 2025)
# System: STAG1 Exon 5
# Test: STAG1 Exon 5 inclusion in control or STAG2 KO cells following treatment with H3B-8800
# Type: cell-based
substance,measurement,setting,value
H3B-8800,STAG1 Exon 5 skipping,"STAG2 KO versus control cells, following treatment of H3B-8800",increased STAG1 Exon 5 skipping
same,sensitivity of cohesin-mutant AML cells to splicing inhibitor,"cohesin mutations, AML cells",highly sensitive
